Assay results from ChEMBL document CHEMBL3596162, “Biaryls as potent, tunable dual neurokinin 1 receptor antagonists and serotonin transporter inhibitors” (Bioorg Med Chem Lett, 2015).

Legend:
Substance-P receptor = Substance-P receptor (Meriones unguiculatus, UniProt Q5DUB1); assay: Displacement of [125I]-substance P from gerbil NK1 receptor expressed in HEK293 cell membranes incubated for 30 mins by liquid scintillation counting method; set-up: species or system Gerbillinae
[1] = Displacement of [3H]-citalopram from gerbil SERT expressed in HEK293 cell membranes incubated for 60 mins by liquid scintillation counting method; set-up: species or system Gerbillinae
HEK293 = assay: Selectivity index, ratio of IC50 for gerbil SERT expressed in HEK293 cell membranes to IC50 for gerbil NK1 receptor expressed in HEK293 cell membranes; type: cell-based; conditions: Gerbillinae

Chain of Substance-P receptor (Q5DUB1 whole entry): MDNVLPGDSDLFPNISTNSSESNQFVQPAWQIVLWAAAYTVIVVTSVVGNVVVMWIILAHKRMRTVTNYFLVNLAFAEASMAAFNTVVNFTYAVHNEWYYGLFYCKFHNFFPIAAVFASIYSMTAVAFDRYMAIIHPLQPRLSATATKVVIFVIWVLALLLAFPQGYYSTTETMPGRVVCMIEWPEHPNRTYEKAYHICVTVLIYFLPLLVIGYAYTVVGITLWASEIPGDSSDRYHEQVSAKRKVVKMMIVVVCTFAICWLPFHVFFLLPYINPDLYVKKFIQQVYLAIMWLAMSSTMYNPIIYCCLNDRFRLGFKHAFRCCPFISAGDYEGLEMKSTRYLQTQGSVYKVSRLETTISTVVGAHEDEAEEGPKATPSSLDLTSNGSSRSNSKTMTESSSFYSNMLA

SMILES | IC50 (Substance-P receptor) [nM] | IC50 [1] [nM] | Ratio IC50 (HEK293)
O=[N+]([O-])c1cccc(-c2cc(COCC3(c4ccccc4)CCNCC3)cc(C(F)(F)F)c2)c1 | 5.2 | 4.2 | 0.8
FC(F)(F)c1cc(COCC2(c3ccccc3)CCNCC2)cc(-c2ccncc2)c1 | 1.6 | 16 | 10
N#Cc1ccc(-c2cc(COCC3(c4ccccc4)CCNCC3)cc(C(F)(F)F)c2)cc1Cl | 1.1 | 3.1 | 3
COc1ccccc1-c1cc(COCC2(c3ccccc3)CCNCC2)cc(C(F)(F)F)c1 | 54 | 4.2 | 0.1
Cn1nnc(-c2cc(COCC3(c4ccccc4)CCNCC3)cc(C(F)(F)F)c2)n1 | 36 | 9.6 | 0.3
FC(F)(F)c1ccc(-c2cc(COCC3(c4ccccc4)CCNCC3)cc(C(F)(F)F)c2)cc1 | 30 | 36 | 1
Cc1nnnn1-c1cc(COCC2(c3ccccc3)CCNCC2)cc(C(F)(F)F)c1 | 180 | 70 | 0.4
Oc1ccc(-c2cc(COCC3(c4ccccc4)CCNCC3)cc(C(F)(F)F)c2)cc1 | 3.6 | 27 | 8
Nc1cccc(-c2cc(COCC3(c4ccccc4)CCNCC3)cc(C(F)(F)F)c2)c1 | 25 | 30 | 1
COc1ccc(-c2cc(COCC3(c4ccccc4)CCNCC3)cc(C(F)(F)F)c2)cc1 | 0.93 | 15 | 16
N#Cc1ccc(-c2cc(COCC3(c4ccccc4)CCNCC3)cc(C(F)(F)F)c2)nc1 | 8.1 | 4 | 0.5
FC(F)(F)c1cc(COCC2(c3ccccc3)CCNCC2)cc(-c2nccs2)c1 | 70 | 4.1 | 0.06
Fc1ccccc1-c1cc(COCC2(c3ccccc3)CCNCC2)cc(C(F)(F)F)c1 | 23 | 7.6 | 0.3
Cn1nnnc1-c1cc(COCC2(c3ccccc3)CCNCC2)cc(C(F)(F)F)c1 | 65 | 50 | 0.8
FC(F)(F)c1cc(COCC2(c3ccccc3)CCNCC2)cc(-n2nnnc2C(F)(F)F)c1 | 700 | 57 | 0.08
COc1ccc(-n2nnnc2C)cc1CO[C@H]1CCCN[C@H]1c1ccccc1 | 0.05 | – | –
N#Cc1cccc(-c2cc(COCC3(c4ccccc4)CCNCC3)cc(C(F)(F)F)c2)c1 | 49 | 10 | 0.2
FC(F)(F)c1cc(COCC2(c3ccccc3)CCNCC2)cc(-c2ccccc2)c1 | 6.3 | 3.7 | 0.6
Cc1cc(-c2cc(COCC3(c4ccccc4)CCNCC3)cc(C(F)(F)F)c2)ccc1C#N | 1.2 | 2.7 | 2
O=[N+]([O-])c1ccccc1-c1cc(COCC2(c3ccccc3)CCNCC2)cc(C(F)(F)F)c1 | 6.5 | 3.5 | 0.5
FC(F)(F)c1cc(COCC2(c3ccccc3)CCNCC2)cc(-c2cccc3ccccc23)c1 | 540 | 120 | 0.2
O=[N+]([O-])c1ccc(-c2cc(COCC3(c4ccccc4)CCNCC3)cc(C(F)(F)F)c2)cc1 | 3.8 | 7.3 | 2
Cc1cccc(-c2cc(COCC3(c4ccccc4)CCNCC3)cc(C(F)(F)F)c2)c1 | 24 | 14 | 0.6
COc1ccc(-n2nnnc2C(F)(F)F)cc1CO[C@H]1CCCN[C@H]1c1ccccc1 | 0.03 | – | –
Fc1cccc(-c2cc(COCC3(c4ccccc4)CCNCC3)cc(C(F)(F)F)c2)c1 | 5 | 6.3 | 1
CN(C)c1ccc(-c2cc(COCC3(c4ccccc4)CCNCC3)cc(C(F)(F)F)c2)cc1 | 18 | 3.5 | 0.2

SMILES | IC50 (Substance-P receptor) [nM] | IC50 [1] [nM] | Ratio IC50 (HEK293)
FC(F)(F)c1cc(COCC2(c3ccccc3)CCNCC2)cc(-c2ccc(Cl)cc2)c1 | 2.8 | 1.8 | 0.6
CCN1CCC(COCc2cc(-c3ccc(C#N)cc3)cc(C(F)(F)F)c2)(c2ccccc2)CC1 | 0.25 | 420 | 1700
N#Cc1c(F)c(F)c(-c2cc(COCC3(c4ccccc4)CCNCC3)cc(C(F)(F)F)c2)c(F)c1F | 4.8 | 47 | 10
C[C@@H](O[C@H]1OCCN(Cc2n[nH]c(=O)[nH]2)[C@H]1c1ccc(F)cc1)c1cc(C(F)(F)F)cc(C(F)(F)F)c1 [APREPITANT] | 0.09 | – | –
FC(F)(F)c1cc(COCC2(c3ccccc3)CCNCC2)cc(-c2ccc3c(c2)OCO3)c1 | 7.1 | 45 | 6
Cc1ccc(-c2cc(COCC3(c4ccccc4)CCNCC3)cc(C(F)(F)F)c2)cc1 | 8.4 | 6.4 | 0.8
COc1ccc(-n2nnnc2C)cc1COCC1(c2ccccc2)CCNCC1 | 87 | 37 | 0.4
FC(F)(F)c1cc(COCC2(c3ccccc3)CCNCC2)cc(-c2ccccn2)c1 | 41 | 7.4 | 0.2
Fc1ccc(-c2cc(COCC3(c4ccccc4)CCNCC3)cc(C(F)(F)F)c2)cc1 | 2.2 | 1.5 | 0.7
FC(F)(F)c1cc(COCC2(c3ccccc3)CCNCC2)cc(-c2ccccc2Cl)c1 | 68 | 6.4 | 0.1
N#Cc1ccc(-c2cc(COCC3(c4ccccc4)CCNCC3)cc(C(F)(F)F)c2)cn1 | 1.9 | 10 | 5
N#Cc1cc(F)c(-c2cc(COCC3(c4ccccc4)CCNCC3)cc(C(F)(F)F)c2)cc1F | 0.91 | 3.7 | 4
N#Cc1c(F)cc(-c2cc(COCC3(c4ccccc4)CCNCC3)cc(C(F)(F)F)c2)cc1F | 0.32 | 7 | 22
Oc1cccc(-c2cc(COCC3(c4ccccc4)CCNCC3)cc(C(F)(F)F)c2)c1 | 13 | 27 | 2
N#Cc1ccc(-c2cc(COCC3(c4ccccc4)CCN(C4CC4)CC3)cc(C(F)(F)F)c2)cc1 | 1.8 | 2100 | 1200
CCOc1ccc(-c2cc(COCC3(c4ccccc4)CCNCC3)cc(C(F)(F)F)c2)cc1 | 3.4 | 14 | 4
N#Cc1ccc(-c2cc(COCC3(c4ccccc4)CCNCC3)cc(C(F)(F)F)c2)cc1F | 1.1 | 8.9 | 8
FC(F)(F)c1cc(COCC2(c3ccccc3)CCNCC2)cc(-c2ccco2)c1 | 47 | 18 | 0.4
COc1ccc(-n2cnnn2)cc1CO[C@H]1CCCN[C@H]1c1ccccc1 | 0.05 | – | –
Cc1ccccc1-c1cc(COCC2(c3ccccc3)CCNCC2)cc(C(F)(F)F)c1 | 130 | 13 | 0.1
CC(C)N1CCC(COCc2cc(-c3ccc(C#N)cc3)cc(C(F)(F)F)c2)(c2ccccc2)CC1 | 0.39 | 450 | 1200
N#Cc1ccc(-c2cc(COCC3(c4ccccc4)CCN(Cc4ccccc4)CC3)cc(C(F)(F)F)c2)cc1 | 2 | 800 | 400
FC(F)(F)c1cc(COCC2(c3ccccc3)CCNCC2)cc(-c2nnn[nH]2)c1 | 200 | 8.6 | 0.04
FC(F)(F)c1cc(COCC2(c3ccccc3)CCNCC2)cc(-c2ccc3ccccc3c2)c1 | 120 | 110 | 0.9
COC(=O)c1ccc(-c2cc(COCC3(c4ccccc4)CCNCC3)cc(C(F)(F)F)c2)cc1 | 17 | 25 | 1
